Reference: paper PMC7726145, “Fine-tuning of lysine side chain modulates the activity of histone lysine methyltransferases” (Scientific Reports, 2020)

What was measured:
Assay type in all cases: biochemical
GLP [1] = target: T1, GLP (Homo sapiens, UniProt Q9H9B1); experiment: NMR analysis of GLP-catalyzed methylation; settings: GLP 8 µM; peptide 400 µM; SAM 2 mM; Tris-d11 buffer pD 8.0; 1 h at 37 °C; 1H NMR and 1H-13C HSQC
T1 construct: GLP residues 951–1235; His6 (N); made in house; host or cells: Escherichia coli Rosetta BL21 (DE3)pLysS
T1 sequence (Q9H9B1 982-1266): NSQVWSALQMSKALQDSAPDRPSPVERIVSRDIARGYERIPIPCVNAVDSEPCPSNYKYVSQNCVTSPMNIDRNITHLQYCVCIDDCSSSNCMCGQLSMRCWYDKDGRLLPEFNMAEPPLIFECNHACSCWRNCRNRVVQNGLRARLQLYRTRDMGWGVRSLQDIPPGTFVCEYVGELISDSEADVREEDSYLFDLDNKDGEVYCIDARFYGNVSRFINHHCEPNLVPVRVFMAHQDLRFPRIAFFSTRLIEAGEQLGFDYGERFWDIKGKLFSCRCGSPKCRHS
Method: (§1) Human KMTs enzymes were expressed and purified as previously described[36]–[38]. The methyltransferase plasmid (SETD8 residues 186–352, SETD7 residues 1–366, GLP residues 951–1235, G9a residues 913–1193) transformed into Escherichia coli Rosetta BL21 (DE3)pLysS cells. Cultures were grown at 37 °C in LB media containing kanamycin and chloramphenicol. Cells were grown to an OD600 of 0.5–0.6 (approximately 2.5–3 h), at which point they induced by isopropyl β-D-1-thiogalactopyranoside (IPTG) and they were transferred to a temperature of 16 °C overnight. After letting the cells grow at this temperature, they were then harvested and lysed by sonication. The lysate was centrifuged at high-speed to remove unbroken cells. The supernatant was then centrifuged to further clean the lysate. Purification of the N-terminally his6-tagged KMTs was performed using Ni–NTA affinity chromatography column, which was prewashed with lysis buffer. Target KMT enzyme was then eluted using a linear gradient concentration of imidazole. The elute was then concentrated with centrifugal concentrators (Millipore). All KMT enzymes were further purified by gel filtration on a Superdex 75 column (GE Healthcare) on an AKTA system.

G9a [2] = target: T2, G9a (Homo sapiens, UniProt Q96KQ7); experiment: MALDI-TOF MS methylation assay with G9a; settings: G9a 2 µM, peptide 100 µM, SAM 500 µM, Tris 50 mM, pH 8.0, 1 h at 37 °C
T2 construct: G9a residues 913–1193; His6 (N); made in house; host or cells: Escherichia coli Rosetta BL21 (DE3)pLysS
T2 sequence (Q96KQ7 913-1193): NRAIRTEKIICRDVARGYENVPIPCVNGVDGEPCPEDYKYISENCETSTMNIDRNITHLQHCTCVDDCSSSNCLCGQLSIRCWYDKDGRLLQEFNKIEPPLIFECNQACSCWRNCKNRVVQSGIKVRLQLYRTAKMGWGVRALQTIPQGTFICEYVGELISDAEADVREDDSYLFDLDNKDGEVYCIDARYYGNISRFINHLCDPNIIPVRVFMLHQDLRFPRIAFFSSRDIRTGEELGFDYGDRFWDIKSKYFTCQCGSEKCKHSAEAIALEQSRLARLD
Method: as §1

GLP [3] = target: T1, GLP; experiment: MALDI-TOF MS methylation assay with GLP; settings: GLP 2 µM, peptide 100 µM, SAM 500 µM, Tris 50 mM, pH 8.0, 1 h at 37 °C
Method: as §1

G9a [4] = target: T2, G9a; experiment: Residual activity / inhibition of G9a-catalyzed methylation of H3K9; settings: G9a 100 nM; 14-mer H3K9 5 µM; analogue 100 µM
Method: as §1

GLP [5] = target: T1, GLP; experiment: Residual activity / inhibition of GLP-catalyzed methylation of H3K9; settings: GLP 100 nM; 14-mer H3K9 5 µM; analogue 100 µM
Method: as §1

Substance: ARTKQTARK^9STGGKA [H3K9, native histone peptide, N-terminal 15-residues of H3]
- methylation observed by NMR (GLP [1]): resulted in a signal of H3K9me3
- methylation products with G9a (G9a [2]): complete trimethylation
- methylation products with GLP (GLP [3]): complete trimethylation
- inhibition of G9a in words (G9a [4]): outcompetes H3KO9 and H3KN9 peptides for binding in the active site of G9a/GLP
- inhibition of GLP in words (GLP [5]): outcompetes H3KO9 and H3KN9 peptides for binding in the active site of G9a/GLP
